The source of these data is paper PMC4794603 (Molecules and Cells, 2016).

For series [1], the system named is [H][C@@]12OC(=O)C=C[C@@H](C)[C@H](O)[C@@H](C)C(=O)[C@@H](C)[C@H](O)[C@@H](C)C(=O)[C@H](C)[C@H](O)[C@@H](C)CC=CC=C[C@@H](CC)CC[C@@]([H])(O[C@@]3(CC[C@@H](C)[C@@H](C[C@H](C)O)O3)[C@@H]1C)[C@@H]2C. Kind of series: purified protein. To be noted: heme.
A further series addresses T1, CYP107W1 (Streptomyces avermitilis, UniProt Q93HJ0).
T1 sequence (Q93HJ0 1-404): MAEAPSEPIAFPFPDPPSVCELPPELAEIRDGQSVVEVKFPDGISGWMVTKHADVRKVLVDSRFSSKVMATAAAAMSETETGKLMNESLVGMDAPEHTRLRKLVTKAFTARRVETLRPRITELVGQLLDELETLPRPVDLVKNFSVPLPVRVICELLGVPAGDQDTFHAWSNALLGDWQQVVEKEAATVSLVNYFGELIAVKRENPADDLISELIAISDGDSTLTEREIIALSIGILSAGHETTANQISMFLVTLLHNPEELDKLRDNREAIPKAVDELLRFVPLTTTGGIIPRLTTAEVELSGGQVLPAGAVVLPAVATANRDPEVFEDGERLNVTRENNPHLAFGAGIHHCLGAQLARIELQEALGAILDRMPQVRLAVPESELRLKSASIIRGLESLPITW
As to the kind of experiment: co-crystal structure at […] Å. It is filed as binding.

Series [2] deals with T2, CYP107W1 W178G mutant (Streptomyces avermitilis, UniProt Q93HJ0, W178G).
T2 sequence (Q93HJ0 1-404 W178G): T1 sequence (Q93HJ0 1-404)
As to the kind of experiment: UV-vis spectral binding titration.

For series [3], the target named is T2, CYP107W1 W178G mutant. As to the kind of experiment: UV-vis spectral binding titration. This is another data set of the same source.

Where two headings read alike, the source gives them in different places.

As a reminder, the Km is the substrate concentration at which the rate is half of its maximum. For “CYP107W1 W178G mutant (Streptomyces avermitilis; W178G)”, in series [1], the Km came to 3.4 ± 0.4 µM.
As for `CC[C@H]1/C=C\C=C\C[C@@H](C)[C@H](O)[C@@](C)(O)C(=O)[C@@H](C)[C@H](O)[C@@H](C)C(=O)[C@@H](C)[C@H](O)[C@@H](C)/C=C/C(=O)O[C@@H]2[C@H](C)[C@H](CC1)O[C@]1(CC[C@H](C)[C@H](C[C@@H](C)O)O1)[C@H]2C` [OliA, oligomycin A], at CYP107W1, the “co-crystal structure at 2.6 Å” value is “Coordinates and structure factors of CYP107W1-OliA have been deposited in the Protein Data Bank with accession number 4WQ0”.
The term Kd denotes the concentration at which binding is half-saturated. `Clc1ccc(COC(Cn2ccnc2)c2ccc(Cl)cc2Cl)c(Cl)c1` (centres unmarked) [miconazole] displayed a Kd on CYP107W1 W178G mutant [2] of 3.1 ± 0.3 µM.
Same read-out and setting: under `Clc1ccc(COC(Cn2ccnc2)c2ccc(Cl)cc2Cl)cc1` (centres unmarked) [econazole] stands 5.3 ± 0.4 µM.
The compound `CC[C@@H]1/C=C/C=C/C[C@H](C)[C@H](O)[C@](C)(O)C(=O)[C@H](C)[C@@H](O)[C@H](C)C(=O)[C@H](C)[C@@H](O)[C@H](C)/C=C/C(=O)O[C@H]2[C@@H](C)[C@@H](CC1)O[C@@]1(CC[C@@H](C)[C@@H](C[C@H](C)O)O1)[C@@H]2C` [oligomycin A] came in with a Kd at CYP107W1 W178G mutant [3] of 4.3 ± 0.7 µM.
